The target in assay [1] is Cyclin-dependent kinase 14/Cyclin-Y (Homo sapiens) (UniProt O94921+Q8ND76). The assay is described as follows: Inhibition of recombinant full length human CDK14/cyclinY assessed as residual activity at 10 uM in presence of [gamma-33ATP] by scintillation counting based radiometry assay relative to control. The class given is protein-complex assay.
For assay [2], the target named is Insulin-like growth factor 1 receptor (Homo sapiens) (UniProt P08069). The assay is described as follows: Inhibition of human IGF1R (959 to end residues) assessed as residual activity at 10 uM using KKKSPGEYVNIEFGF as substrate after 40 mins by [gamma-33ATP] radiometric assay relative to control.
In assay [3] the target is Cyclin-dependent kinase-like 1 (Homo sapiens) (UniProt Q00532). The assay is described as follows: Inhibition of recombinant full length human CDKL1 assessed as residual activity at 10 uM using RRRFRPASPLRGP as substrate incubated for 120 mins in presence of [gamma-33ATP] by scintillation counting based radiometry assay relative to control.
Cyclin-dependent kinase-like 1 (Homo sapiens), sequence (Q00532 whole entry): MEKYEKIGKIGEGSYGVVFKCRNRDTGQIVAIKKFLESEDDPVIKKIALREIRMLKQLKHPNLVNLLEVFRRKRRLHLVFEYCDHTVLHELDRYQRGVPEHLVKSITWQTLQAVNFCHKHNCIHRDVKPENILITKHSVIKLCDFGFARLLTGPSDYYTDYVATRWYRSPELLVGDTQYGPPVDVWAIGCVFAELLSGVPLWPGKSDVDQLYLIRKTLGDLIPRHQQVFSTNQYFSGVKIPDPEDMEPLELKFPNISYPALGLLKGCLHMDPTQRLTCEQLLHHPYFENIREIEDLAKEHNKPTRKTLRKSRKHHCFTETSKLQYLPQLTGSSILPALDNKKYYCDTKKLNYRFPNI
In assay [4] the target is FKBP12A/mTOR (Homo sapiens) (UniProt P62942+P42345). Description: Inhibition of recombinant full length human mTOR/FKBP12 assessed as residual activity at 10 uM measured after 40 mins in presence of [gamma33P]ATP by scintillation counting based radiometry assay relative to control. The class given is protein-complex assay.
In assay [5] the target is Ephrin type-A receptor 2 (Homo sapiens) (UniProt P29317). The assay is described as follows: Inhibition of recombinant human EphA2 (596 to 900 residues) assessed as residual activity at 10 uM using poly(Glu, Tyr) 4:1 as substrate at 40 mins in presence of [gamma-33ATP] by scintillation counting based radiometry assay relative to control.
Ephrin type-A receptor 2 (Homo sapiens), sequence (P29317 whole entry, the tested form may be a part): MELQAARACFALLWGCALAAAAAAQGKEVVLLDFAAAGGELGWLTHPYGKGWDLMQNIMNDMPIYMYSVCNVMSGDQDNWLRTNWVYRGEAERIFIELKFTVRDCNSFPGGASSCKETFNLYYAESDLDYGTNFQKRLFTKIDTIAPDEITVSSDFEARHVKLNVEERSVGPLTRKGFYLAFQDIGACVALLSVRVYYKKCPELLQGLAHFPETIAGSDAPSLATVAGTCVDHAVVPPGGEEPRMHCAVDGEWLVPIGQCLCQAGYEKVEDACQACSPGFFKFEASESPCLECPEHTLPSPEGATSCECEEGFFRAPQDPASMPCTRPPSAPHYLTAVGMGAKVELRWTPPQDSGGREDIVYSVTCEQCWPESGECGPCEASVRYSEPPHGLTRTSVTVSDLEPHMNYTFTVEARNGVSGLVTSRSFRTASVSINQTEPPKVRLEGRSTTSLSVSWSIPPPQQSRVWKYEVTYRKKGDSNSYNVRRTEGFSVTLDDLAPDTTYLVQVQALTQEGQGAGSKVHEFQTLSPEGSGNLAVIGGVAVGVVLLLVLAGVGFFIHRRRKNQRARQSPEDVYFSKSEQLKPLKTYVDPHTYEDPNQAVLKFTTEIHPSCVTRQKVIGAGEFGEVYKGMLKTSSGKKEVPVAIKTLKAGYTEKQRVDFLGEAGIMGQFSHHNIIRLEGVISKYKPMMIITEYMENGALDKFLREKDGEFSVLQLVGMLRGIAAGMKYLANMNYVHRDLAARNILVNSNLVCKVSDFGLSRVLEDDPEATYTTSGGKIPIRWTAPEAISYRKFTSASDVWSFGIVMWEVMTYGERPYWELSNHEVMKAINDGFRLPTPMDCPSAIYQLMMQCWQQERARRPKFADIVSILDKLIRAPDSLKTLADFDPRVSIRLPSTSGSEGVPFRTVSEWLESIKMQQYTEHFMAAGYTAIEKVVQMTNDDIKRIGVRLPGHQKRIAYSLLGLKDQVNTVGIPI
Assay [6] deals with LIM domain kinase 2 (Homo sapiens) (UniProt P53671). The assay is described as follows: Inhibition of recombinant human LIMK2 assessed as residual activity after 10 uM by scintillation counting based radiometry assay relative to control.
For assay [7], the target named is Serine/threonine-protein kinase SIK2 (Homo sapiens) (UniProt Q9H0K1). The assay is described as follows: Inhibition of recombinant human SIK2 (1 to 276 residues) assessed as residual activity at 10 uM using KKKVSRSGLYRSPSMPENLNRPR as substrate incubated for 40 mins in presence of [gamma33P]ATP by scintillation counting based radiometry assay relative to control.

The species named for a further assay is Mus musculus. Description: Inhibition of recombinant full-length mouse PI3K p110/p85 H1047R mutant assessed as residual activity at 10 uM using phosphatidylinositol-4, 5-bisphosphate as substrate incubated for 40 mins in presence of [gamma33P]ATP by scintillation counting based radiometry assay relative to control.
Assay [8] concerns the target Tyrosine-protein kinase Fes/Fps (Homo sapiens) (UniProt P07332). The assay is described as follows: Inhibition of recombinant human FES (2 to end residues) assessed as residual activity at 10 uM using poly(Glu, Tyr) 4:1 as substrate at 40 mins in presence of [gamma-33ATP] by scintillation counting based radiometry assay relative to control.
Assay [9] concerns the target LIM domain kinase 1 (Homo sapiens) (UniProt P53667). The assay is described as follows: Inhibition of recombinant human LIMK1 (285 to 638 residues) assessed as residual activity at 10 uM using cofilin as substrate after 40 mins in presence of [gamma-33ATP] by scintillation counting based radiometry assay relative to control.
The target in assay [10] is Protein kinase C beta type (Homo sapiens) (UniProt P05771). The assay is described as follows: Inhibition of recombinant human PKCbeta2 (2 to end residues) assessed as residual activity at 10 uM using histone H1 as substrate incubated for 40 mins in presence of [gamma33P]ATP by scintillation counting based radiometry assay relative to control.
The species named for another assay is Homo sapiens. Description: Inhibition of recombinant full length human PRAK R291E mutant assessed as residual activity at 10 uM using KKLRRTLSVA as substrate incubated for 40 mins in presence of [gamma33P]ATP by scintillation counting based radiometry assay relative to control.
Assay [11] concerns the target Serine/threonine-protein kinase pim-2 (Homo sapiens) (UniProt Q9P1W9). Description: Inhibition of recombinant human Pim2 (2 to end residues) assessed as residual activity at 10 uM using RSRHSSYPAG as substrate incubated for 40 mins in presence of [gamma33P]ATP by scintillation counting based radiometry assay relative to control.
The target of assay [12] is Serine/threonine-protein kinase Chk1 (Homo sapiens) (UniProt O14757). Description: Inhibition of recombinant full length human CHK1 assessed as residual activity at 10 uM using KKKVSRSGLYRSPSMPENLNRPR as substrate incubated for 40 mins in presence of [gamma-33ATP] by scintillation counting based radiometry assay relative to control.
Serine/threonine-protein kinase Chk1 (Homo sapiens), sequence (O14757 whole entry): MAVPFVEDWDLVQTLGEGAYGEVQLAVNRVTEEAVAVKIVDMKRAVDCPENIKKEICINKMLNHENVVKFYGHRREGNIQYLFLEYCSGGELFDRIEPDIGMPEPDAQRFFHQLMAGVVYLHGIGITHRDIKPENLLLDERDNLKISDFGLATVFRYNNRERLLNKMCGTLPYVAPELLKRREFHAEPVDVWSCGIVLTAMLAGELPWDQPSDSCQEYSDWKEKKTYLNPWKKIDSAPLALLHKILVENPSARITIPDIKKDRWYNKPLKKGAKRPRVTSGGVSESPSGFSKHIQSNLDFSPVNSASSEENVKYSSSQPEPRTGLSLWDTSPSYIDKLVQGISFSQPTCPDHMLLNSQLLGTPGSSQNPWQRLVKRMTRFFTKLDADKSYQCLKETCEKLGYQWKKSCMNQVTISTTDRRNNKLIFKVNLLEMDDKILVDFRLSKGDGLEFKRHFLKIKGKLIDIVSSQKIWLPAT
For assay [13], the system named is Mast/stem cell growth factor receptor Kit (Homo sapiens), P10721 [D816V]. The assay is described as follows: Inhibition of recombinant human C-Kit D816V mutant (544 to end residues) assessed as residual activity at 10 uM poly(Glu, Tyr) 4:1 as substrate incubated 40 mins in presence of [gamma-33ATP] by scintillation counting based radiometry assay relative to control.

Assay [14] concerns the target Ephrin type-A receptor 3 (Homo sapiens) (UniProt P29320). Description: Inhibition of recombinant human EphA3 (578 to end residues) assessed as residual activity at 10 uM using poly(Glu, Tyr) 4:1 as substrate at 40 mins in presence of [gamma-33ATP] by scintillation counting based radiometry assay relative to control.
Assay [15] concerns the target Tyrosine-protein kinase HCK (Homo sapiens) (UniProt P08631). Description: Inhibition of human HCK (230 to 497 residues) assessed as residual activity at 10 uM using Cdc2 peptide as substrate after 40 mins by [gamma-33ATP] radiometric assay relative to control.
Assay [16] deals with Protein kinase C alpha type (Homo sapiens) (UniProt P17252). The assay is described as follows: Inhibition of recombinant human full length PKCalpha assessed as residual activity at 10 uM using histone H1 as substrate incubated for 40 mins in presence of [gamma33P]ATP by scintillation counting based radiometry assay relative to control.
For assay [17], the target named is Serine/threonine-protein kinase 26 (Homo sapiens) (UniProt Q9P289). The assay is described as follows: Inhibition of recombinant human MST4 (4 to 304 residues) assessed as residual activity at 10 uM using RLGRDKYKTLRQI as substrate measured after 40 mins in presence of [gamma33P]ATP by scintillation counting based radiometry assay relative to control.
Serine/threonine-protein kinase 26 (Homo sapiens), sequence (Q9P289 2-416 limits assumed): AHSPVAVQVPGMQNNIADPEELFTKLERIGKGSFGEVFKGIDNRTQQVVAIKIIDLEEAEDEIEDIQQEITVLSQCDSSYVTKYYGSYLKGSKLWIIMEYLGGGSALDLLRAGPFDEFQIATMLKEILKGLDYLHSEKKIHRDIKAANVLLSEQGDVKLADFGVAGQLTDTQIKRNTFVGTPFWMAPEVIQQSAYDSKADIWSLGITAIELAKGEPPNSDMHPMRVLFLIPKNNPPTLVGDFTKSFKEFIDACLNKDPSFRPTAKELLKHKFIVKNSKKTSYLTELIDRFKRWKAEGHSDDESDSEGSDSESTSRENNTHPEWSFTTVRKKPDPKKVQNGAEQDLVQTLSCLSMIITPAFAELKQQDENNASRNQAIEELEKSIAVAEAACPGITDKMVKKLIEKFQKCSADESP
Assay [18] deals with Cyclin-dependent kinase 13/Cyclin-K (Homo sapiens) (UniProt Q14004+O75909). Description: Inhibition of recombinant full length human CDK13/cyclinK assessed as residual activity at 10 uM using RSRSRSRSRSRSR as substrate incubated for 40 mins in presence of [gamma-33ATP] by scintillation counting based radiometry assay relative to control. The class given is protein-complex assay.

In assay [19] the target is Testis-specific serine/threonine-protein kinase 1 (Homo sapiens) (UniProt Q9BXA7). The assay is described as follows: Inhibition of recombinant full-length human TSSK1 assessed as residual activity at 10 uM using KKKVSRSGLYRSPSMPENLNRPR as substrate incubated for 40 mins in presence of [gamma33P]ATP by scintillation counting based radiometry assay relative to control.

The structures appear in SMILES notation.

Serine/threonine-protein kinase pim-2 (Homo sapiens), sequence (Q9P1W9 whole entry, looked up): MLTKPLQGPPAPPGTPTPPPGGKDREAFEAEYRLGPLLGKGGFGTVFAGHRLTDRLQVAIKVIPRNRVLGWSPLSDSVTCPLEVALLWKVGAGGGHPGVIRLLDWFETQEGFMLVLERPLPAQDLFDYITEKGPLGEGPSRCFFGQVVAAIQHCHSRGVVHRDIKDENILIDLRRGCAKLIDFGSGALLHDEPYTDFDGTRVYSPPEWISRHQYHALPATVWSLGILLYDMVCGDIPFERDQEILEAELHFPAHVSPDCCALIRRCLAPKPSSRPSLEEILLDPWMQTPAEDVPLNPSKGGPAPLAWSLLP
Ephrin type-A receptor 3 (Homo sapiens), sequence (P29320 whole entry, the tested form may be a part): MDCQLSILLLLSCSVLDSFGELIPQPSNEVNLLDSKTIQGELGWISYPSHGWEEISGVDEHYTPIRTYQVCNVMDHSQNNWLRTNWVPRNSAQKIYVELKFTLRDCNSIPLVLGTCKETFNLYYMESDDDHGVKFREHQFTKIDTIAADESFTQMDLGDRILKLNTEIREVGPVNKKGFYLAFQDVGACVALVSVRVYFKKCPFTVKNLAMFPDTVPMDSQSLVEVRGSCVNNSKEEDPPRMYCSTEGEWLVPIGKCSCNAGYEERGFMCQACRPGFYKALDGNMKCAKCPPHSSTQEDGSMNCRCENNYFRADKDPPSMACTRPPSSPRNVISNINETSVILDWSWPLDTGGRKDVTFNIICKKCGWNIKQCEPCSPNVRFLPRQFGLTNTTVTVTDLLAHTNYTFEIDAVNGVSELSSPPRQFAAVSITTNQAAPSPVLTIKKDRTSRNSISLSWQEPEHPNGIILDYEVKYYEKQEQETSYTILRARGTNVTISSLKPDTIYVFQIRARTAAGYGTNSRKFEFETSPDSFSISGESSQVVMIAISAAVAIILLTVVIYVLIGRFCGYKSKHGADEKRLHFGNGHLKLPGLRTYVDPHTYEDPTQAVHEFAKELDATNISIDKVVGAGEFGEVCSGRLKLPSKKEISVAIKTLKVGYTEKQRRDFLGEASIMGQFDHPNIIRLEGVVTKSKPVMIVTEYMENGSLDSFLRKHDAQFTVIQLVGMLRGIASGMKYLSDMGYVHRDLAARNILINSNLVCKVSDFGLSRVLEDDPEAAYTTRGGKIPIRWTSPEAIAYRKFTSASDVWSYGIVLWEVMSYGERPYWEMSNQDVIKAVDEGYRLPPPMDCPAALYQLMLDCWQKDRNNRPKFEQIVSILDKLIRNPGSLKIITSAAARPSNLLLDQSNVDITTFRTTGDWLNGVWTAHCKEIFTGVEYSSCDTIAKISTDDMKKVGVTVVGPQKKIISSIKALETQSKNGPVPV
Tyrosine-protein kinase Fes/Fps (Homo sapiens), sequence (P07332 whole entry, the tested form may be a part): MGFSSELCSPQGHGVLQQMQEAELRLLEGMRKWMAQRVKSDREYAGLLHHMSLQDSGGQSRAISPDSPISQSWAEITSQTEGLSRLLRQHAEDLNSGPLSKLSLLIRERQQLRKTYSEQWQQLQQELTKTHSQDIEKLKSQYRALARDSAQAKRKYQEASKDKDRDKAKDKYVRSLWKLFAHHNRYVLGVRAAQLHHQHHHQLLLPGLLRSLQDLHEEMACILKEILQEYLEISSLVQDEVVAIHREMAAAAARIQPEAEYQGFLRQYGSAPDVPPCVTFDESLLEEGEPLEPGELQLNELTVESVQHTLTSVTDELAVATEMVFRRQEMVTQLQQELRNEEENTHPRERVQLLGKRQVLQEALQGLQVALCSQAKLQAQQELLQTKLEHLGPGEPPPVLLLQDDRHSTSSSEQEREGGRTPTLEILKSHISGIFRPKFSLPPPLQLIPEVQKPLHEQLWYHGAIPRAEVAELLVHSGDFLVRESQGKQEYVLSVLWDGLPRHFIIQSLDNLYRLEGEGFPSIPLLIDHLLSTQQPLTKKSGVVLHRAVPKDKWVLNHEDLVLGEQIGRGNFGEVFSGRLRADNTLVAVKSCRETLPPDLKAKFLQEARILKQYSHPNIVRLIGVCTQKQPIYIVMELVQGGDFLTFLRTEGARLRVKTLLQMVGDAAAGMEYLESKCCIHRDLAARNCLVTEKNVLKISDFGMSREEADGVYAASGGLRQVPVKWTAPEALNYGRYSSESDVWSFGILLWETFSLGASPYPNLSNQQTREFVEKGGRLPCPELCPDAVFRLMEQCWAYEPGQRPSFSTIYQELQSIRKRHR

With `C[C@@H](c1ccccc1)n1nnc2cnc3ccc(-c4cnc5[nH]ccc5c4)cc3c21`, the Activity in [1] was 92%; in assay [2], 50%; in [3], 79%; in assay [4], -1%; in assay [5], 68%; in assay [6], 56%. Besides, the Activity was 7% in [7]; 5% in the assay listed under Mus musculus; 41% in assay [8]; 95% in assay [9]; 93% in [10]; 87% in the assay listed under Homo sapiens. Further, the Activity in assay [11] was determined as 80%; in assay [12] it was 140%; in assay [13], 86%; in assay [14], 80%; in [15], 9%; in assay [16], 77%. Besides, the values for the Activity in assay [17], in [18] and in assay [19] were 69%, 84% and 74%, respectively.

Values taken from ChEMBL document CHEMBL4334471, “Discovery of 1,8-disubstituted-[1,2,3]triazolo[4,5-c]quinoline derivatives as a new class of Hippo signaling pathway inhibitors” (Bioorg Med Chem Lett, 2019).
